What was measured:
[1] = In vitro liver microsomal stability, human; format: in vitro ADME; conditions: human liver microsomes 0.5 mg/mL, NADPH, 37° C.
Experimental: (§1) Liver microsome incubation samples were prepared by mixing a PBS buffer (pH=7.4), a liver microsome solution (0.5 mg/mL), a test compound, and an NADPH+MgCl2 solution, and incubated at 37° C. and 300 rpm for 1 h. Zero-hour samples were prepared by mixing a PBS buffer (pH=7.4), a liver microsome solution (0.5 mg/mL), and a test compound. An acetonitrile solution containing an internal standard was added to the samples, and supernatants were prepared by protein precipitation, diluted, and then assayed by LC/MS/MS.

[2] = In vitro liver microsomal stability, mouse; format: in vitro ADME; conditions: mouse liver microsomes 0.5 mg/mL, NADPH, 37° C.
Experimental: as §1

Mouse pharmacokinetics = format: in vivo; conditions: ICR, plasma, po, 3 mg/kg, mice, intragastric 3 mpk vs intravenous 1 mpk, read-out: Absolute bioavailability F (%)
Experimental: ICR mice weighing 18-22 g were randomized into groups of 9 mice per group after 3-5 days of acclimatization and then administered intragastrically at a dose of 3 mg/kg.
Plasma samples to be tested were prepared by taking blood from the orbit at time points of 15 min, 30 min, 1 h, 2 h, 4 h, 6 h, 8 h, 10 h, and 24 h.
20 μL of each plasma sample to be tested and a standard curve sample were taken, and an acetonitrile solution containing an internal standard was added. A supernatant was obtained by protein precipitation, diluted, and then assayed by LC/MS/MS.
Pharmacokinetic parameters were fitted using a non-compartmental model.

[3] = test system: OCI-LY10 human diffuse large B-cell lymphoma NOD-SCID mouse subcutaneous xenograft tumor; experiment: Efficacy evaluation in OCI-LY10 NOD-SCID mouse subcutaneous xenograft tumor model; format: in vivo, NOD-SCID mice
From the text: Efficacy evaluation in OCI-LY10 human diffuse large B-cell lymphoma NOD-SCID mouse subcutaneous xenograft tumor model
(1) SPF female NOD-SCID mice (source: Jiangsu Huachuang Xinnuo Pharmaceutical Technology Co., Ltd.) were inoculated subcutaneously at the right side armpit with OCI-LY10 human diffuse large B-cell lymphoma cells at 1×10^7 cells/mouse. When the mean tumor volume reached about 200 mm^3, the animals were divided into a control group (vehicle control group) and treatment groups (compound groups).
The administration dose included 1 mg/kg, 2 mg/kg, and 4 mg/kg, and the administration frequency was once daily. The day of grouping was defined as day 0, and intragastric administration was started on day 0 for 21 consecutive days.
Alternatively, the administration dose was 4 mg/kg, and the administration frequency was 5 times per week. The day of grouping was defined as day 0, and intragastric administration was started on day 0 five times per week for two consecutive weeks.
The tumor volume was measured once every 3 days, and meanwhile, the mice were weighed and the data were recorded; the general behavior of the mice was observed and recorded every day. After the experiment was completed, the tumors were removed, weighed, and photographed.
The detection index and the calculation formula are as follows:
Tumor volume TV (mm^3)=½×(a×b^2), wherein a is the long diameter of the tumor, and b is the short diameter of the tumor; • Relative tumor volume RTV=TVt/TV0, wherein TV0 is the tumor volume on day 0, and TVt is the tumor volume at each measurement; • Relative tumor proliferation rate T/C (%)=(TRTV/CRTV)×100%, wherein TRTV is RTV of the treatment group, and CRTV is RTV of the vehicle control group; • Tumor growth inhibition rate TGI (%)=(1−TW/TW0)×100%; wherein TW is the tumor weight of the treatment group, and TW0 is the tumor weight of the vehicle control group; • Weight change rate WCR (%)=(Wtt−Wt0)/Wt0×100%, wherein Wt0 is the body weight of the mouse on day 0, and Wtt is the body weight of the mouse at each measurement.

Human liver microsome Residuals at 60 min (%) [1]	Mouse liver microsome Residuals at 60 min (%) [2]	Compound	further results
100.33%	93.27%	NC(=O)/C(=C/n1cnc(-c2cc(C(F)(F)F)nc(C(F)(F)F)c2)n1)c1cnc(NCC(F)(F)F)nc1 [Compound 4]	
		CC(F)(F)CNc1ncc(/C(=C\n2cnc(-c3cc(C4CC4)nc(C(F)(F)F)c3)n2)C(N)=O)cn1 [Compound 15]	bioavailability (Mouse pharmacokinetics): 94.8%
104.79%	98.21%	NC(=O)/C(=C/n1cnc(-c2cc(C3CC3)nc(C(F)(F)F)c2)n1)c1cnc2cccnc2c1 [Compound 33]	
		NC(=O)/C(=C/n1cnc(-c2cc(C(F)(F)F)nc(C(F)(F)F)c2)n1)c1cnc2cccnc2c1 [Compound 25]	Weight change rate (%) (mean ± SD) ([3]; Table 4, 4 mg/kg intragastric, Day 21 of assay): 1.7 ± 5.3%
102.54%	94.24%	NC(=O)/C(=C/n1cnc(-c2cc(C3CC3)nc(C(F)(F)F)c2)n1)c1cncc(F)c1 [Compound 27]	
97.64%	99.03%	C[C@@H](Nc1ncc(/C(=C\n2cnc(-c3cc(C(F)(F)F)nc(C(F)(F)F)c3)n2)C(N)=O)cn1)C(F)(F)F [Compound 5]	
101.7%	98.98%	NC(=O)/C(=C/n1cnc(-c2cc(C(F)(F)F)nc(C(F)(F)F)c2)n1)c1cncc(F)c1 [Compound 8]	
93.23%	91.15%	NC(=O)/C(=C/n1cnc(-c2cc(C3CC3)nc(C(F)(F)F)c2)n1)c1cncnc1 [Compound 13]	
88.75%	90.60%	NC(=O)/C(=C/n1cnc(-c2cc(C3CC3)nc(C(F)(F)F)c2)n1)c1cnc(NCC(F)(F)F)nc1 [Compound 16]	
		Cc1ccc(/C(=C\n2cnc(-c3cc(C4CC4)nc(C(F)(F)F)c3)n2)C(N)=O)cn1 [Compound 38]	bioavailability (Mouse pharmacokinetics): 112%
93.92%	95.11%	C[C@@H](Nc1ncc(/C(=C\n2cnc(-c3cc(C4CC4)nc(C(F)(F)F)c3)n2)C(N)=O)cn1)C(F)(F)F [Compound 17]	
101.21%	87.79%	COc1ccc(/C(=C\n2cnc(-c3cc(C4CC4)nc(C(F)(F)F)c3)n2)C(N)=O)cn1 [Compound 34]	
96.64%	90.27%	NC(=O)/C(=C/n1cnc(-c2cc(C3CC3)nc(C(F)(F)F)c2)n1)c1cnc2ccccc2c1 [Compound 26]	
		Cc1ccc(/C(=C\n2cnc(-c3cc(C(F)(F)F)nc(C(F)(F)F)c3)n2)C(N)=O)cn1 [Compound 21]	Weight change rate (%) (mean ± SD) ([3]; Table 4, 2 mg/kg intragastric, Day 21 of assay): −2.0 ± 6.5%; bioavailability (Mouse pharmacokinetics): 97.3%
100.32%	95.08%	NC(=O)/C(=C/n1cnc(-c2cc(C3CC3)nc(C(F)(F)F)c2)n1)c1cccnc1F [Compound 32]	
		NC(=O)/C(=C/n1cnc(-c2cc(C(F)(F)F)nc(C(F)(F)F)c2)n1)c1cnc2ccccc2c1 [Compound 11]	Weight change rate (%) (mean ± SD) ([3]; Table 5, 4 mg/kg intragastric, Day 18 of assay): 0.6 ± 8.1%
80.48%	83.14%	NC(=O)/C(=C/n1cnc(-c2cc(C3CC3)nc(C(F)(F)F)c2)n1)c1cnc(NCC(F)F)nc1 [Compound 14]	
98.75%	89.94%	N#Cc1cncc(/C(=C\n2cnc(-c3cc(C4CC4)nc(C(F)(F)F)c3)n2)C(N)=O)c1 [Compound 30]	
106.91%	89.18%	NC(=O)/C(=C/n1cnc(-c2cc(C3CC3)nc(C(F)(F)F)c2)n1)c1ccc(F)nc1 [Compound 39]	
		NC(=O)/C(=C/n1cnc(-c2cc(C(F)(F)F)nc(C(F)(F)F)c2)n1)c1cnc(NCC(F)F)nc1 [Compound 2]	bioavailability (Mouse pharmacokinetics): 104%
		CC(F)(F)CNc1ncc(/C(=C\n2cnc(-c3cc(C(F)(F)F)nc(C(F)(F)F)c3)n2)C(N)=O)cn1 [Compound 3]	bioavailability (Mouse pharmacokinetics): 114%
95.75%	93.99%	N#Cc1cncc(/C(=C\n2cnc(-c3cc(C(F)(F)F)nc(C(F)(F)F)c3)n2)C(N)=O)c1 [Compound 10]	
